Assay results reported in patent US7145013B2, “3-thia-4-arylquinolin-2-one derivatives” (Bristol-Myers Squibb Company, priority 2003, dated 2006).

Experiments:
[1] = test system: cloned mammalian (mSlo or hSlo) BK channel expressed in Xenopus oocytes; test: Assay for BK channel openers: two-electrode voltage clamp, BK-mediated outward current in Xenopus oocytes; format: cell-based; conditions: percent increase over BK current in controls, voltage step to +140 mV, IBTX-sensitive current
Procedure: The ability of the compounds of the invention to open BK channels and increase whole-cell outward (K^+) BK-mediated currents was assessed under voltage-clamp conditions by determining their ability to increase cloned mammalian (mSlo or hSlo) BK-mediated outward current heterologously expressed in Xenopus oocytes [Butler, A., et al., Science 1993, 261, 221–224; Dworetzky, S. I., et al., Mol. Brain Res. 1994, 27, 189–193; Gribkoff, V. K., et al., Mol. Pharmacol. 1996, 50, 206–217]. The two BK constructs employed represent nearly structurally identical homologous proteins, and have proven to be pharmacologically indistinguishable in our tests. To isolate BK current from native (background, non-BK) current, the specific and potent BK channel-blocking toxin iberiotoxin (IBTX) [Galvez, A., et al., J. Biol. Chem. 1990, 265, 11083–11090] was employed at a supramaximal concentration, e.g., 50–100 nanomolar (“nM”). The relative contribution of BK channel-mediated current to total outward current was determined by subtraction of the current remaining in the presence of IBTX (non-BK current) from the current profiles obtained in all other experimental conditions (control, drug, and wash) [Gribkoff, V. K. et al., Mol. Pharmacol. 1996, 50, 206–217]. […] All compounds were tested in 5–10 oocytes and are reported at the indicated concentration of 20 micromolar (“μM”) (or as otherwise indicated); the effect of the selected compounds of the invention on BK current was expressed as the percent of control IBTX-sensitive current at a single transmembrane voltage (+140 mV) and is listed in Table 1. Recordings were accomplished using standard two-electrode voltage clamp techniques [Stuhmer, W., et al., Methods in Enzymology, 1992, 207, 319–339]; voltage-clamp protocols consisted of 500–750 milliseconds (“ms”) duration step depolarizations, from a holding potential of −60 mV, to a final voltage up to +140 mV in 20 mV steps. The experimental media (modified Barth's solution) consisted of millimolar (“mM”): NaCl (88), NaHCO3 (2.4), KCl (1.0), HEPES (10), MgSO4 (0.82), Ca(NO3)2 (0.33), CaCl2 (0.41); pH 7.5.

[2] = test system: rat small intestine (ileum) segments; test: Rat small intestine (ileum) strip relaxation; conditions: integral of nifedipine-sensitive force, pre- vs 30 min post-compound
From the text: The ability of the compounds of the invention to relax rat small intestine tissue as a model for the treatment of irritable bowel syndrome is described as follows. Male rats (Harlan, Sprague Dawley, 250–350 g) were sacrificed by decapitation. A portion of small intestine (ileum) was removed and the attached connective tissues and intestinal contents removed. The ileum was cut into segments of ≦1 cm in length. The segments were mounted longitudinally between fixed hooks in organ baths containing warm (37° C.) physiological salt solution (composition in mM: NaCl 118.4, KCl 4.7, KH2PO4 1.2, MgSO4 1.2, CaCl2 1.8, Glucose 10.1, NaHCO3 25; gassed with 95% O2/5% CO2, pH 7.4). A stable tension of ˜1.5 g was maintained in the tissue segments during the equilibration period of 45 minutes. Changes in muscle tension were measured with isometric force transducers (Grass, FT-03C) and recorded using AcqKnowledge data acquisition system (AcqKnowledge for MP100WS, Biopac Systems Inc., Goleta, Calif.). Compound or vehicle was added in the baths for 30 minutes. […] The effects of compounds or vehicle on force was determined by measuring the integral of nifedipine-sensitive force (including resting tone and spontaneous contractions) pre- and 30 min post-compound (or vehicle) addition. Results are expressed as the percentage inhibition of force. […]

Row | Compound | % MaxiK opening ([1]; at 20 μM) [%] | % Inhibition of force (RSI strips) [2] [%] | % MaxiK opening ([1]; at 1 μM)
1 | Nc1ccc(Sc2c(-c3cc(Cl)ccc3O)c3cc(C(F)(F)F)ccc3[nH]c2=O)cc1 [Example 1, 3-[(4-Aminophenyl)thio]-4-(5-chloro-2-hydroxyphenyl)-6-(trifluoromethyl)-2(1H)-quinolinone] | 392 | 10 | 
2 | Cn1c(=O)c(Sc2ccc(N)cc2)c(-c2cc(Cl)ccc2O)c2cc(C(F)(F)F)ccc21 [Example 2, 3-[(4-Aminophenyl)thio]-4-(5-chloro-2-hydroxyphenyl)-1-methyl-6-(trifluoromethyl)-2(1H)-quinolinone] | 144 |  | 
3 | CCS(=O)(=O)Nc1ccc(Sc2c(-c3cc(Cl)ccc3O)c3cc(C(F)(F)F)ccc3[nH]c2=O)cc1 [Example 3, N-[4-[[4-(5-Chloro-2-hydroxyphenyl)-1,2-dihydro-2-oxo-6-(trifluoromethyl)-3-quinolinyl]thio]phenyl]ethanesulfonamide] | 296 |  | 
4 | COc1ccc(Cl)cc1-c1c(Sc2ccc(NS(=O)(=O)C(F)(F)F)cc2)c(=O)[nH]c2ccc(C(F)(F)F)cc12 [Example 4, N-[4-[[4-(5-chloro-2-methoxyphenyl)-1,2-dihydro-2-oxo-6-(trifluoromethyl)-3-quinolinyl]thio]phenyl]-1,1,1-trifluoromethanesulfonamide] | 235 |  | 
5 | CCCS(=O)(=O)Nc1ccc(Sc2c(-c3cc(Cl)ccc3O)c3cc(C(F)(F)F)ccc3[nH]c2=O)cc1 [Example 5, N-[4-[[4-(5-chloro-2-hydroxyphenyl)-1,2-dihydro-2-oxo-6-(trifluoromethyl)-3-quinolinyl]thio]phenyl]-1-propanesulfonamide] | 255 |  | 
6 | CN(C)S(=O)(=O)Nc1ccc(Sc2c(-c3cc(Cl)ccc3O)c3cc(C(F)(F)F)ccc3[nH]c2=O)cc1 [Example 6, N′-[4-[[4-(5-chloro-2-hydroxyphenyl)-1,2-dihydro-2-oxo-6-(trifluoromethyl)-3-quinolinyl]thio]phenyl]-N,N-dimethylsulfamide] |  |  | 222^⋄ %
7 | O=c1[nH]c2ccc(C(F)(F)F)cc2c(-c2cc(Cl)ccc2O)c1Sc1ccc(NS(=O)(=O)C(F)(F)F)cc1 [Example 7, N-[4-[[4-(5-chloro-2-hydroxyphenyl)-1,2-dihydro-2-oxo-6-(trifluoromethyl)-3-quinolinyl]thio]phenyl]-1,1,1-trifluoromethanesulfonamide] | 277 | 51 | 
8 | O=c1[nH]c2ccc(C(F)(F)F)cc2c(-c2cc(Cl)ccc2O)c1Sc1ccc(NS(=O)(=O)CC(F)(F)F)cc1 [Example 8, N-[4-[[4-(5-chloro-2-hydroxyphenyl)-1,2-dihydro-2-oxo-6-(trifluoromethyl)-3-quinolinyl]thio]phenyl]-2,2,2-trifluoroethanesulfonamide] | 170 |  | 
9 | CN(C)S(=O)(=O)Nc1ccc(Sc2c(-c3cc(Cl)ccc3O)c3cc(C(F)(F)F)ccc3n(C)c2=O)cc1 [Example 9, N′-[4-[[4-(5-chloro-2-hydroxyphenyl)-1,2-dihydro-1-methyl-2-oxo-6-(trifluoromethyl)-3-quinolinyl]thio]phenyl]-N,N-dimethylsulfamide] |  |  | 114^⋄ %
